Results reported in US20220265690A1, “USE OF SOTAGLIFLOZIN FOR THE TREATMENT OF PATIENTS WITH TYPE 2 DIABETES MELLITUS AND MODERATE RENAL IMPAIRMENT” (Lexicon Pharmaceuticals, Inc., priority 2019, published 2022).

How the values were obtained:
[1] = tested on: patients with T2D and documented moderate renal insufficiency (CKD 3A, 3B); assay: Multicentre, double-blind, placebo-controlled clinical study of sotagliflozin 200 mg and 400 mg once daily; HbA1c change at Week 26; type: in vivo; conditions: for HbA1c (%) Change from baseline to Week 26 LS Mean difference (SE) vs. placebo / HbA1c (%) Change from baseline to Week 26 LS Mean (SE) / HbA1c (%) Week 26 Mean (SD) / HbA1c (%) Week 26 Median: overall ITT population; for HbA1c (%) Change from baseline to Week 26 LS Mean (SE): ANCOVA, multiple imputation; for LS mean change in HbA1c from baseline to W26 / mean HbA1c level reached at W26: sotagliflozin 400 mg
Procedure: The efficacy, relative to a placebo, […], was evaluated in multicentre, double-blind clinical with random distribution in three groups of treatment (group treated with sotagliflozin 200 mg daily dose, group treated with sotagliflozin 400 mg daily dose, and group treated with a placebo) of patients. The selected patients were adult patients with T2D (drug-naïve or on antidiabetic therapy) and documented moderate renal insufficiency defined by an eGFR (based on the 4 variable Modification of Diet in Renal Disease [MDRD] equation) of ≥30 and <60 mL/min/1.73 m^2 (CKD 3A, 3B). The study was conducted as follows: • Screening Phase—Visit 1 (up to 2 weeks) • Run-in phase (Visit 2), lasted 2 weeks. Patients were treated in a single-blind manner with two placebo tablets (identical to sotagliflozin 200 mg in appearance) administered once daily during the Run-in phase, starting from Visit 2 • Double-blind Treatment Period (Day 1 to Week 26): Eligible patients will be randomized on Day 1 (Visit 3). Following randomization, patients will be treated in a double-blind manner for 52 weeks. A total of 787 patients ≥18 years of age (or ≥legal age of the majority, whichever is greater) were randomly assigned 1:1:1 to the following 3 treatment groups: • Placebo, given as two (2) placebo tablets (identical to sotagliflozin 200 mg in appearance), once daily, before the first meal of the day • Sotagliflozin 200 mg, given as 2 tablets: 1 sotagliflozin 200 mg tablet and 1 placebo tablet (identical to sotagliflozin 200 mg in appearance), once daily • Sotagliflozin 400 mg, given as two (2) 200 mg tablets, once daily, before the first meal of the day. • Double-blind Extension Period (Week 27 to Week 52): • Follow-up Period Following the last dose of the IMP: a 4 week post-treatment visit to collect safety and some efficacy information. […] Efficacy analysis was based on the intent-to-treat (ITT) population using efficacy assessments obtained during the study, including those obtained after investigational medicinal product (IMP) discontinuation or introduction of rescue therapy. The ITT population consisted of all randomized patients. The primary efficacy endpoint was analyzed using an analysis of covariance (ANCOVA) model. The ANCOVA model included treatment groups (sotagliflozin 200 mg, sotagliflozin 400 mg, placebo), randomization stratum of HbA1c (≤8.5%, >8.5%), randomization stratum of SBP (<130, ≥130 mmHg), randomization stratum of CKD stage (3A, 3B), and country as fixed effects, and baseline HbA1c value as a covariate.

[2] = tested on: patients with type 2 diabetes; conditions: phase II trials; cited from earlier work
[3] = sotagliflozin 200 mg once daily
[4] = sotagliflozin 400 mg once daily
[5] = sotagliflozin 400 mg once daily, listed as sotagliflozin

In the case of `CCOc1ccc(Cc2cc([C@@H]3O[C@H](SC)[C@@H](O)[C@H](O)[C@H]3O)ccc2Cl)cc1` [Sotagliflozin, sotagliflozin], the “HbA1c (%) Change from baseline to Week 26 LS Mean difference (SE) vs. placebo” value ([1]; sotagliflozin 200 mg once daily, 95% CI (−0.244, 0.054), p-value 0.2129) is reported as −0.09 (0.076) %, the “HbA1c (%) Change from baseline to Week 26 LS Mean (SE)” value [1, 3] is reported as −0.32 (0.060) % and the “HbA1c (%) Week 26 Mean (SD)” value [1, 3] is reported as 7.82 (0.99) %. For the same molecule, the “HbA1c (%) Week 26 Median” value [1, 3] was 7.70%, the “HbA1c (%) Change from baseline to Week 26 LS Mean difference (SE) vs. placebo” value ([1]; sotagliflozin 400 mg once daily, 95% CI (−0.382, −0.082), p-value 0.0024) was −0.23 (0.076) % and the “HbA1c (%) Change from baseline to Week 26 LS Mean (SE)” value [1, 4] was −0.46 (0.060) %. The “HbA1c (%) Change from baseline to Week 26 LS Mean (SE)” value [1, 5] was −0.46%, the “HbA1c (%) Week 26 Mean (SD)” value [1, 4] was 7.72 (1.00) % and the “HbA1c (%) Week 26 Median” value [1, 4] was 7.60%. The “HbA1c (%) Week 26 Mean (SD)” value [1, 5] was 7.72%, the “LS mean change in HbA1c from baseline to W26” value ([1]; CKD3A population) was −0.54% and the “mean HbA1c level reached at W26” value ([1]; CKD3A population) was 7.62%. For the same molecule, the “LS mean change in HbA1c from baseline to W26” value ([1]; CKD3B population) was −0.37%, the “mean HbA1c level reached at W26” value ([1]; CKD3B population) was 7.82% and the “glycemic control (reduction in A1C)” value [2] was “significantly improve glycemic control”.
